Measured values taken from patent US20240150377A1, “MODULATORS OF CYSTIC FIBROSIS TRANSMEMBRANE CONDUCTANCE REGULATOR” (VERTEX PHARMACEUTICALS INCORPORATED, priority 2020, published 2024).

Molecular target: T1, CFTR (Homo sapiens, UniProt P13569, DEL508-508)
T1 construct: endogenous in cells; host or cells: primary human bronchial epithelial cells from CF subjects (F508del/MF-HBE), differentiated at air-liquid interface
Experiment: HBE2 assay: Ussing chamber assay of CFTR-mediated short-circuit currents
Type: cell-based
Conditions: 3 μM corrector; F508del/MF-HBE cells; with 44 nM potentiator, 18-24 hours, 20% human serum
How it was run: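 Corrector activity read as CFTR-dependent ISC (μA/cm^2): peak forskolin current minus post-inhibitor steady state. Measured at 37 °C, voltage clamp at 0 mV, on F508del/MF-HBE epithelia grown >14 days air-liquid interface in Ussing chambers.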

T1 sequence (P13569 with tags, fused parts or gaps DEL508-508): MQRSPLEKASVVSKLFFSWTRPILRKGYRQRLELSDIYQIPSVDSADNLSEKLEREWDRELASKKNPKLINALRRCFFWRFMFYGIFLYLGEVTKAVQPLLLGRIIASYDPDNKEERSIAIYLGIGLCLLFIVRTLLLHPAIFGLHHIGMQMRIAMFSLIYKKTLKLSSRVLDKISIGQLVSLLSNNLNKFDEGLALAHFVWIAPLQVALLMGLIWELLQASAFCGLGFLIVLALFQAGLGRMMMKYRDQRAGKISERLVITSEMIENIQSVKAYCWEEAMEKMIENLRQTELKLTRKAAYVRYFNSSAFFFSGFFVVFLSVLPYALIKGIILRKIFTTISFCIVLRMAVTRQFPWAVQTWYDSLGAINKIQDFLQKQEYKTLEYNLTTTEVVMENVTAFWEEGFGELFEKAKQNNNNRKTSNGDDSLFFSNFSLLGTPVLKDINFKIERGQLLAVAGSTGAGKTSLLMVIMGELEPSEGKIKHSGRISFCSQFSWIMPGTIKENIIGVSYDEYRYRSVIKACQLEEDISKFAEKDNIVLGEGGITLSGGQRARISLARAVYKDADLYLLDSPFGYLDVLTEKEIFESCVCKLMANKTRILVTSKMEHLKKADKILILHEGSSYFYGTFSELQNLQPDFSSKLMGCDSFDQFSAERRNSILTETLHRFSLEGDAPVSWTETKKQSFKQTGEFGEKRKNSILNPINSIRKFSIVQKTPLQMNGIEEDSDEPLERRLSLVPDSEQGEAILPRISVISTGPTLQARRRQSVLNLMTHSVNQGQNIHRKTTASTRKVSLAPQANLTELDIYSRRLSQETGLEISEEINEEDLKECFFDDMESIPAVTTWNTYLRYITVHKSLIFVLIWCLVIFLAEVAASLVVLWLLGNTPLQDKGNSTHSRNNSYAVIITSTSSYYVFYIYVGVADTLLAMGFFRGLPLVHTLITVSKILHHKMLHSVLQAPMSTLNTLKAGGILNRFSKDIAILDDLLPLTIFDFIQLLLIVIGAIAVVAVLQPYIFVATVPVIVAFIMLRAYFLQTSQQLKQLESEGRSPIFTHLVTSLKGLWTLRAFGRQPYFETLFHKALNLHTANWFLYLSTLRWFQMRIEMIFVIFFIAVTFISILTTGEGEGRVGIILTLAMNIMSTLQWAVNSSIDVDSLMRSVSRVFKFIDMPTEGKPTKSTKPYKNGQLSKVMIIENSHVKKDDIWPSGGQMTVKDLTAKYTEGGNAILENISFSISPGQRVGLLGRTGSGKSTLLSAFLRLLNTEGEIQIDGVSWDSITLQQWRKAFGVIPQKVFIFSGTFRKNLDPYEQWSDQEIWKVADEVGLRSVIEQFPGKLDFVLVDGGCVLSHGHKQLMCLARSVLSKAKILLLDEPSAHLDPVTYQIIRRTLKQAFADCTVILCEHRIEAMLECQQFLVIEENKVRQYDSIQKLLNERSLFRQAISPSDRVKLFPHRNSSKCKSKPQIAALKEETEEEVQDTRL

| HBE2 Activity at 3 μM (%) | Compound |
| --- | --- |
| +++ (+++ is >60+) | Cc1cccc(C)c1-c1cc2nc(n1)NS(=O)(=O)c1cccc(c1)C(=O)N(Cc1cnc3cc(C(C)C)oc3n1)[C@H](CC(C)(C)C)CO2 [Compound 1882] |
| +++ (+++ is >60+) | Cc1cccc(C)c1-c1cc2nc(n1)NS(=O)(=O)c1cccc(c1)C(=O)N(Cc1cnc3c(n1)N(C)C(C)(C)C3)[C@H](CC(C)(C)C)CO2 [Compound 1883] |
| +++ (+++ is >60+) | Cc1cccc(C)c1-c1cc2nc(n1)NS(=O)(=O)c1cccc(c1)C(=O)N(Cc1cncc(N(C)[C@H]3C[C@@H](C)C3)n1)[C@H](CCC(C)(C)C)CO2 [Compound 1884] |
| +++ (+++ is >60+) | Cc1cccc(C)c1-c1cc2nc(n1)NS(=O)(=O)c1cccc(c1)C(=O)N(Cc1cncc(N(C)[C@H]3C[C@H](C)C3)n1)[C@H](CCC(C)(C)C)CO2 [Compound 1885] |
| +++ (+++ is >60+) | Cc1cccc(C)c1-c1cc2nc(n1)NS(=O)(=O)c1cccc(c1)C(=O)N(Cc1cncc(N3CCC[C@H]3C)n1)[C@H](CC1CCCC1)CO2 [Compound 1888] |
| +++ (+++ is >60+) | Cc1cccc(C)c1-c1cc2nc(n1)NS(=O)(=O)c1cccc(c1)C(=O)N(Cc1cnc3cc(C(C)C)n(C)c3n1)[C@H](COC1CC1)CO2 [Compound 1889] |
| +++ (+++ is >60+) | Cc1cccc(C)c1-c1cc2nc(n1)NS(=O)(=O)c1cccc(c1)C(=O)N(Cc1cncc(N(C)C3CCC3)n1)[C@H](COC1CC1)CO2 [Compound 1893] |
| +++ (+++ is >60+) | Cc1cccc(C)c1-c1cc2nc(n1)NS(=O)(=O)c1cccc(c1)C(=O)N(Cc1cncc(N3CCCC[C@H]3C)n1)[C@@H](C1CC(C)(C)C1)CO2 [Compound 1898] |
| +++ (+++ is >60+) | Cc1cccc(C)c1-c1cc2nc(n1)NS(=O)(=O)c1cccc(c1)C(=O)N(Cc1cncc(N3CCC[C@H]3C)n1)[C@H](CC1CC(C)(C)C1)CO2 [Compound 1899] |
| + (+ is <300)) | Cc1cccc(C)c1-c1cc2nc(n1)NS(=O)(=O)c1cccc(c1)C(=O)N(Cc1cncc(N3CCC[C@H]3C)n1)[C@H](CC1CC(C)(C)C1)CO2 [Compound 1900] |
| +++ (+++ is >60+) | Cc1cccc(C)c1-c1cc2nc(n1)NS(=O)(=O)c1cccc(c1)C(=O)N(Cc1cncc(N3CCCC[C@H]3C)n1)[C@H](CC1CC(C)(C)C1)CO2 [Compound 1901] |
| +++ (+++ is >60+) | Cc1cccc(C)c1-c1cc2nc(n1)NS(=O)(=O)c1cccc(c1)C(=O)N(Cc1cncc(N(C)CC(C)C)n1)[C@H](COC1CC1)CO2 [Compound 1903] |
| +++ (+++ is >60+) | Cc1cccc(C)c1-c1cc2nc(n1)NS(=O)(=O)c1cccc(c1)C(=O)N(Cc1cncc(N(C)C3CC4(CC4)C3)n1)[C@H](COC1CC1)CO2 [Compound 1904] |
| +++ (+++ is >60+) | Cc1cccc(C)c1-c1cc2nc(n1)NS(=O)(=O)c1cccc(c1)C(=O)N(Cc1cncc(N(C)C3CC(F)(F)C3)n1)[C@H](COC1CC1)CO2 [Compound 1905] |
| +++ (+++ is >60+) | Cc1cccc(C)c1-c1cc2nc(n1)NS(=O)(=O)c1cccc(c1)C(=O)N(Cc1cncc(N(C)[C@H]3C[C@@H](F)C3)n1)[C@H](COC1CC1)CO2 [Compound 1906] |
| +++ (+++ is >60+) | Cc1cccc(C)c1-c1cc2nc(n1)NS(=O)(=O)c1cccc(c1)C(=O)N(Cc1cncc(N(C)[C@H]3C[C@H](F)C3)n1)[C@H](COC1CC1)CO2 [Compound 1907] |
| +++ (+++ is >60+) | Cc1cccc(C)c1-c1cc2nc(n1)NS(=O)(=O)c1cccc(c1)C(=O)N(Cc1cncc(N3CCCC[C@H]3C)n1)[C@H](COC1CC1)CO2 [Compound 1908] |
| +++ (+++ is >60+) | CCn1c(C)cc2ncc(CN3C(=O)c4cccc(c4)S(=O)(=O)Nc4nc(cc(-c5c(C)cccc5C)n4)OC[C@H]3CC(C)(C)C)nc21 [Compound 1910] |
| +++ (+++ is >60+) | CCc1cc2ncc(CN3C(=O)c4cccc(c4)S(=O)(=O)Nc4nc(cc(-c5c(C)cccc5C)n4)OC[C@H]3CC(C)(C)C)nc2n1C [Compound 1911] |
| +++ (+++ is >60+) | Cc1cccc(C)c1-c1cc2nc(n1)NS(=O)(=O)c1cccc(c1)C(=O)N(Cc1cncc(N(C)[C@H]3C[C@H](F)C3)n1)[C@H](CCC(C)C)CO2 [Compound 1914] |
| +++ (+++ is >60+) | Cc1cccc(C)c1-c1cc2nc(n1)NS(=O)(=O)c1cccc(c1)C(=O)N(Cc1cncc(N(C)[C@H]3C[C@@H](F)C3)n1)[C@H](CCC1CC1)CO2 [Compound 1915] |
| +++ (+++ is >60+) | Cc1cccc(C)c1-c1cc2nc(n1)NS(=O)(=O)c1cccc(c1)C(=O)N(Cc1cncc(N(C)[C@H]3C[C@H](F)C3)n1)[C@H](CCC1CC1)CO2 [Compound 1916] |
| +++ (+++ is >60+) | Cc1cccc(C)c1-c1cc2nc(n1)NS(=O)(=O)c1cccc(c1)C(=O)N(Cc1cncc(N3[C@H](C)CC[C@@H]3C)n1)[C@H](CCC(C)(C)C)CO2 [Compound 1917] |

| HBE2 Activity at 3 μM (%) | Compound |
| --- | --- |
| +++ (+++ is >60+) | Cc1cccc(C)c1-c1cc2nc(n1)NS(=O)(=O)c1cccc(c1)C(=O)N(Cc1cncc(N3CC[C@H]3C)n1)[C@H](COC1CC1)CO2 [Compound 1918] |
| +++ (+++ is >60+) | Cc1cccc(C)c1-c1cc2nc(n1)NS(=O)(=O)c1cccc(c1)C(=O)N(Cc1cnc3cc(C(C)C)n(C)c3n1)[C@H](COC(C)C)CO2 [Compound 1919] |
| +++ (+++ is >60+) | Cc1cccc(C)c1-c1cc2nc(n1)NS(=O)(=O)c1cccc(c1)C(=O)N(Cc1cncc(N3CC[C@@H]4CC[C@@H]43)n1)[C@H](CCC1CC1)CO2 [Compound 1922] |
| +++ (+++ is >60+) | Cc1cccc(C)c1-c1cc2nc(n1)NS(=O)(=O)c1cccc(n1)C(=O)N(Cc1cncc(N(C)C3CCC3)c1)[C@H](CC(C)(C)C)CO2 [Compound 1924] |
| +++ (+++ is >60+) | CCN(c1cncc(CN2C(=O)c3cccc(c3)S(=O)(=O)Nc3nc(cc(-c4c(C)cccc4C)n3)OC[C@H]2COC2CC2)n1)C1CCC1 [Compound 1925] |
| +++ (+++ is >60+) | Cc1cccc(C)c1-c1cc2nc(n1)NS(=O)(=O)c1cccc(c1)C(=O)N(Cc1cncc(N3CC[C@H]3C)n1)[C@H](COC(C)C)CO2 [Compound 1926] |
| +++ (+++ is >60+) | Cc1cccc(C)c1-c1cc2nc(n1)NS(=O)(=O)c1cccc(c1)C(=O)N(Cc1cncc(N(C)C3CCC3)c1)[C@H](CC(C)(C)C)CO2 [Compound 1927] |
| +++ (+++ is >60+) | Cc1cccc(C)c1-c1cc2nc(n1)NS(=O)(=O)c1cccc(c1)C(=O)N(Cc1cc(N)cc(N(C)C3CCC3)n1)[C@H](CC(C)(C)C)CO2 [Compound 1928] |
| +++ (+++ is >60+) | Cc1cccc(C)c1-c1cc2nc(n1)NS(=O)(=O)c1cccc(c1)C(=O)N(Cc1cc(NC(=O)OC(C)(C)C)cc(N(C)C3CCC3)n1)[C@H](CC(C)(C)C)CO2 [Compound 1929] |
| +++ (+++ is >60+) | Cc1cccc(C)c1-c1cc2nc(n1)NS(=O)(=O)c1cccc(c1)C(=O)N(Cc1ccc3nc(C(C)C)n(C)c3n1)[C@H](COC(C)C)CO2 [Compound 1930] |
| +++ (+++ is >60+) | Cc1cccc(C)c1-c1cc2nc(n1)NS(=O)(=O)c1cccc(c1)C(=O)N(Cc1cnc3cc(C(C)C)n(C)c3n1)[C@H](C[C@H]1CCCOC1)CO2 [Compound 1931] |
| +++ (+++ is >60+) | CCn1c(C(C)C)cc2ncc(CN3C(=O)c4cccc(c4)S(=O)(=O)Nc4nc(cc(-c5c(C)cccc5C)n4)OC[C@H]3COC(C)C)nc21 [Compound 1933] |
| +++ (+++ is >60+) | Cc1cccc(C)c1-c1cc2nc(n1)NS(=O)(=O)c1cccc(c1)C(=O)N(Cc1cnc3cc(C(C)C)n(C)c3n1)[C@H](CC1CCCCC1)CO2 [Compound 1934] |
| +++ (+++ is >60+) | CO[C@H](C)[C@@H]1CCCN1c1cncc(CN2C(=O)c3cccc(c3)S(=O)(=O)Nc3nc(cc(-c4c(C)cccc4C)n3)OC[C@H]2CCC(C)(C)C)n1 [Compound 1935] |
| +++ (+++ is >60+) | CO[C@@H](C)[C@@H]1CCCN1c1cncc(CN2C(=O)c3cccc(c3)S(=O)(=O)Nc3nc(cc(-c4c(C)cccc4C)n3)OC[C@H]2CCC(C)(C)C)n1 [Compound 1936] |
| +++ (+++ is >60+) | Cc1cccc(C)c1-c1cc2nc(n1)NS(=O)(=O)c1cccc(c1)C(=O)N(Cc1cncc(N3CCC[C@H]3C)n1)[C@H](COC(C)C)CO2 [Compound 1937] |
| +++ (+++ is >60+) | Cc1cccc(C)c1-c1cc2nc(n1)NS(=O)(=O)c1cc(n(C)n1)C(=O)N(Cc1cncc(N(C)C3CCC3)n1)[C@H](CC(C)(C)C)CO2 [Compound 1944] |
| +++ (+++ is >60+) | Cc1cccc(C)c1-c1cc2nc(n1)NS(=O)(=O)c1cc(n(C)n1)C(=O)N(Cc1cncc(N3CCC[C@H]3C)n1)[C@H](CC(C)(C)C)CO2 [Compound 1945] |
| +++ (+++ is >60+) | Cc1cccc(C)c1-c1cc2nc(n1)NS(=O)(=O)c1cccc(c1)C(=O)N(Cc1cncc(N(C)C3CC(F)(F)C3)n1)[C@H](COC(C)C)CO2 [Compound 1946] |
| +++ (+++ is >60+) | Cc1cccc(C)c1-c1cc2nc(n1)NS(=O)(=O)c1cccc(c1)C(=O)N(Cc1cncc(N3[C@H](C)CC[C@H]3C)n1)[C@H](CCC(C)(C)C)CO2 [Compound 1947] |
| +++ (+++ is >60+) | Cc1cccc(C)c1-c1cc2nc(n1)NS(=O)(=O)c1cccc(c1)C(=O)N(Cc1cncc(N(C)C3CCCC3)n1)[C@H](COC(C)C)CO2 [Compound 1948] |
| +++ (+++ is >60+) | Cc1cccc(C)c1-c1cc2nc(n1)NS(=O)(=O)c1cccc(c1)C(=O)N(Cc1cncc(N(C)C3CC4(CC4)C3)n1)[C@H](COC(C)C)CO2 [Compound 1949] |
